# Measurements from patent publication US9162992B2, “Compounds and compositions for treatment of breathing control disorders or diseases” (GALLEON PHARMACEUTICALS, INC., priority 2010, dated 2015).
# Experiments:
# [1] = Stability across narrow pH 2-3.6 (1 mg/mL; 10 mM citric acid and glycine); format: physicochemical; parameters: Assay: unit not given here; settings: for Impurities: in %
# Description: Buffer solutions containing ca. 10 mM each of citric acid and glycine in the pH range 2-3.6 were prepared by titrating 250 mL of a single stock containing both buffer agents with 1N NaOH/1N HCl and removing 50 mL aliquots at predetermined pH values. (XXXVI) solutions at 1 mg/mL were prepared in the buffers by dissolving ˜25 mg of (XXXVI) in ca. 23 mL of a given buffer, adjusting the pH to the target and making up the volume to 25.0 mL in a volumetric flask. Each of the buffered (XXXV) solutions was filtered through a 0.2 μm polyether sulfone syringe filter into a volumetric flask previously rinsed with 70% ethanol and dried in a laminar flow hood. Following filtration, each buffered (XXXV) solution was split into 9 aliquots in 5 mL serum vials previously rinsed with 70% ethanol and dried in a laminar flow hood. Filtration and preparation of aliquots were performed in a laminar flow hood. Of the nine aliquots, three aliquots were stored at each 40° C. and 60° C., two aliquots were stored at 25° C. and one aliquot was submitted for T0 testing. Samples were evaluated for pH, assay and related substances at T0 and, following 1 week, 2 weeks and 4 weeks of storage at 40° C. and 60° C. Samples stored at 25° C. served as controls to be analyzed if necessary
# [2] = target: T1, BK potassium channel expressed in GH3 cells (Rattus norvegicus, UniProt Q62976); test: BK potassium channel current in GH3 cells, inside-out patches; format: cell-based
# T1 construct: endogenous in cells; host or cells: GH3 cells
# Description: Stock solutions of the test article were prepared in dimethylsulfoxide (DMSO) and stored frozen. Test article concentrations were prepared fresh daily by diluting stock solutions into a physiological saline solution (composition in mM): KCl, 125; CaCl2, 8.5; HEPES, 10; EGTA, 11.25; pH adjusted to 7.2 with KOH (prepared weekly and refrigerated until used). All test solutions contained 0.1% DMSO.
# GH3 cells were grown in culture using standard procedures. Ionic currents were measured from inside-out patches of GH3 cells. Channel activity was monitored in symmetrical K^+ conditions with a holding potential of −60 mV. Activities before and in the presence of each concentration of test articles were recorded for ≧3 minutes, respectively.
# Data acquisition and analyses were performed using the suite of pCLAMP (Ver. 8.2) programs (MDS-AT, Sunnyvale, Calif. Percent inhibition by test article was calculated using the following equation: 100*(NPocontrol−NPotest)/NPocontrol Results
# T1 sequence (Q62976 whole entry): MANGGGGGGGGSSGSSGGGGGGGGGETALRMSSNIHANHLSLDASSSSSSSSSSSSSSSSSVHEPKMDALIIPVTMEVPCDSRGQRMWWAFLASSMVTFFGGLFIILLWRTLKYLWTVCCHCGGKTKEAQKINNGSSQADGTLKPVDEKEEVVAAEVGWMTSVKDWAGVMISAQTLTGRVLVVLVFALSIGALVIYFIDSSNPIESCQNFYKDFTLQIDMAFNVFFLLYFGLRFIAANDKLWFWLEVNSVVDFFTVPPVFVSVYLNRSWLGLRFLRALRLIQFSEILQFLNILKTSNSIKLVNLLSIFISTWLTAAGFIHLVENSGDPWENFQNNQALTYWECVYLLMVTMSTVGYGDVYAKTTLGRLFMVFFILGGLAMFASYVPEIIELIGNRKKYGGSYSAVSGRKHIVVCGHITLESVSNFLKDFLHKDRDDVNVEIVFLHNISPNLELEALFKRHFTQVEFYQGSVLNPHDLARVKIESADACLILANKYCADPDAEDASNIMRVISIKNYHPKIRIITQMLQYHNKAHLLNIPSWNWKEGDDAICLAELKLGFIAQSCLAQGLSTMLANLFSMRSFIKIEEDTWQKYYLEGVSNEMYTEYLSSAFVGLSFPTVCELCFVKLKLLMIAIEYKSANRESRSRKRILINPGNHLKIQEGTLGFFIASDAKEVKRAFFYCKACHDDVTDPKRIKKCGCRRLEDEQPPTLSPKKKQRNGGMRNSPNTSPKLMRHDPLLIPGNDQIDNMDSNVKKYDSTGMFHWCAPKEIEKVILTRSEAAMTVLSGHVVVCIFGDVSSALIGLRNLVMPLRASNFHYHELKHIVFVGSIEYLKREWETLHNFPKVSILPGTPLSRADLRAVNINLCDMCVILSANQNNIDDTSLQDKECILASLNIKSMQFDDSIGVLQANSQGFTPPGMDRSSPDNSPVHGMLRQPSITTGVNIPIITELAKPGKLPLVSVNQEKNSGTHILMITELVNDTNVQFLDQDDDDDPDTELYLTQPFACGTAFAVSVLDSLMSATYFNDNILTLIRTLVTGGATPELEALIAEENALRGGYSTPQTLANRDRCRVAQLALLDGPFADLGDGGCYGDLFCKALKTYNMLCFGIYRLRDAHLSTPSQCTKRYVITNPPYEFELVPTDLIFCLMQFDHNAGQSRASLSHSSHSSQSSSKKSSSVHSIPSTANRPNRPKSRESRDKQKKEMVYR
compound,measurement,setting,value
"CCCNc1nc(NCCC)nc(N(C)OC)n1 [XXXV, N-(4,6-Bis-n-propylamino-[1,3,5]triazin-2-yl)-N,O-dimethyl-hydroxylamine]",pH dependence of impurity levels,"[1]; 40° C. and 60° C. storage, pH 2-3.6",impurity levels decreased significantly with increasing pH
same,impurity levels at pH 2 vs. impurity levels at pH 3.6,[1]; pH range 2-3.6,≥ 10 fold
same,Assay,"[1]; target pH 2.0, 40° C. 1 wk",0.959
same,pH,"[1]; target pH 2.0, 40° C. 1 wk",2.00
same,Impurities,"[1]; target pH 2.0, 40° C. 1 wk",0.99
same,Assay,"[1]; target pH 2.0, 40° C. 2 wk",0.955
same,pH,"[1]; target pH 2.0, 40° C. 2 wk",1.98
same,Impurities,"[1]; target pH 2.0, 40° C. 2 wk",1.55
same,Assay,"[1]; target pH 2.0, 40° C. 4 wk",0.956
same,pH,"[1]; target pH 2.0, 40° C. 4 wk",1.98
same,Impurities,"[1]; target pH 2.0, 40° C. 4 wk",2.84
same,Assay,"[1]; target pH 2.0, 60° C. 1 wk",0.913
same,pH,"[1]; target pH 2.0, 60° C. 1 wk",2.00
same,Impurities,"[1]; target pH 2.0, 60° C. 1 wk",3.87
same,Assay,"[1]; target pH 2.0, 60° C. 2 wk",0.851
same,pH,"[1]; target pH 2.0, 60° C. 2 wk",1.97
same,Impurities,"[1]; target pH 2.0, 60° C. 2 wk",7.56
same,Assay,"[1]; target pH 2.0, 60° C. 4 wk",0.768
same,pH,"[1]; target pH 2.0, 60° C. 4 wk",1.89
same,Impurities,"[1]; target pH 2.0, 60° C. 4 wk",13.99
same,Assay,"[1]; target pH 2.0, initial",0.981
same,pH,"[1]; target pH 2.0, initial",2.00
same,Impurities,"[1]; target pH 2.0, initial",0.14
same,Assay,"[1]; target pH 2.3, 40° C. 1 wk",0.984
same,pH,"[1]; target pH 2.3, 40° C. 1 wk",2.36
same,Impurities,"[1]; target pH 2.3, 40° C. 1 wk",0.47
same,Assay,"[1]; target pH 2.3, 40° C. 2 wk",0.993
same,pH,"[1]; target pH 2.3, 40° C. 2 wk",2.32
same,Impurities,"[1]; target pH 2.3, 40° C. 2 wk",0.63
same,Assay,"[1]; target pH 2.3, 40° C. 4 wk",0.995
same,pH,"[1]; target pH 2.3, 40° C. 4 wk",2.33
same,Impurities,"[1]; target pH 2.3, 40° C. 4 wk",1.70
same,Assay,"[1]; target pH 2.3, 60° C. 1 wk",0.961
same,pH,"[1]; target pH 2.3, 60° C. 1 wk",2.36
same,Impurities,"[1]; target pH 2.3, 60° C. 1 wk",1.81
same,Assay,"[1]; target pH 2.3, 60° C. 2 wk",0.932
same,pH,"[1]; target pH 2.3, 60° C. 2 wk",2.34
same,Impurities,"[1]; target pH 2.3, 60° C. 2 wk",3.53
same,Assay,"[1]; target pH 2.3, 60° C. 4 wk",0.916
same,pH,"[1]; target pH 2.3, 60° C. 4 wk",2.28
same,Impurities,"[1]; target pH 2.3, 60° C. 4 wk",6.30
same,Assay,"[1]; target pH 2.3, initial",0.987
same,pH,"[1]; target pH 2.3, initial",2.33
same,Impurities,"[1]; target pH 2.3, initial",0.09
same,Assay,"[1]; target pH 2.7, 40° C. 1 wk",0.981
same,pH,"[1]; target pH 2.7, 40° C. 1 wk",2.73
same,Impurities,"[1]; target pH 2.7, 40° C. 1 wk",0.22
same,Assay,"[1]; target pH 2.7, 40° C. 2 wk",0.985
same,pH,"[1]; target pH 2.7, 40° C. 2 wk",2.72
same,Impurities,"[1]; target pH 2.7, 40° C. 2 wk",0.37
same,Assay,"[1]; target pH 2.7, 40° C. 4 wk",1.019
same,pH,"[1]; target pH 2.7, 40° C. 4 wk",2.73
same,Impurities,"[1]; target pH 2.7, 40° C. 4 wk",0.61
same,Assay,"[1]; target pH 2.7, 60° C. 1 wk",0.978
same,pH,"[1]; target pH 2.7, 60° C. 1 wk",2.75
same,Impurities,"[1]; target pH 2.7, 60° C. 1 wk",0.97
same,Assay,"[1]; target pH 2.7, 60° C. 2 wk",1.144
same,pH,"[1]; target pH 2.7, 60° C. 2 wk",2.74
same,Impurities,"[1]; target pH 2.7, 60° C. 2 wk",1.76
same,Assay,"[1]; target pH 2.7, 60° C. 4 wk",0.987
same,pH,"[1]; target pH 2.7, 60° C. 4 wk",2.67
same,Impurities,"[1]; target pH 2.7, 60° C. 4 wk",3.09
same,Assay,"[1]; target pH 2.7, initial",0.987
same,pH,"[1]; target pH 2.7, initial",2.72
same,Assay,"[1]; target pH 3.0, 40° C. 1 wk",1.01
same,pH,"[1]; target pH 3.0, 40° C. 1 wk",3.04
same,Impurities,"[1]; target pH 3.0, 40° C. 1 wk",0.21
same,Assay,"[1]; target pH 3.0, 40° C. 2 wk",0.987
same,pH,"[1]; target pH 3.0, 40° C. 2 wk",3.05
same,Impurities,"[1]; target pH 3.0, 40° C. 2 wk",0.34
same,Assay,"[1]; target pH 3.0, 40° C. 4 wk",1.027
same,pH,"[1]; target pH 3.0, 40° C. 4 wk",3.04
same,Impurities,"[1]; target pH 3.0, 40° C. 4 wk",0.58
same,Assay,"[1]; target pH 3.0, 60° C. 1 wk",0.991
same,pH,"[1]; target pH 3.0, 60° C. 1 wk",3.05
same,Impurities,"[1]; target pH 3.0, 60° C. 1 wk",0.61
same,Assay,"[1]; target pH 3.0, 60° C. 2 wk",0.975
same,Impurities,"[1]; target pH 3.0, 60° C. 2 wk",1.27
same,Assay,"[1]; target pH 3.0, 60° C. 4 wk",0.987
same,Impurities,"[1]; target pH 3.0, 60° C. 4 wk",1.82
same,Assay,"[1]; target pH 3.0, initial",1.005
same,pH,"[1]; target pH 3.0, initial",3.02
same,Assay,"[1]; target pH 3.3, 40° C. 1 wk",1.02
same,pH,"[1]; target pH 3.3, 40° C. 1 wk",3.35
same,Assay,"[1]; target pH 3.3, 40° C. 2 wk",1.01
same,pH,"[1]; target pH 3.3, 40° C. 2 wk",3.35
same,Assay,"[1]; target pH 3.3, 40° C. 4 wk",1.047
same,pH,"[1]; target pH 3.3, 40° C. 4 wk",3.34
same,Impurities,"[1]; target pH 3.3, 40° C. 4 wk",0.25
same,Assay,"[1]; target pH 3.3, 60° C. 1 wk",0.997
same,pH,"[1]; target pH 3.3, 60° C. 1 wk",3.36
same,Impurities,"[1]; target pH 3.3, 60° C. 1 wk",0.41
same,Assay,"[1]; target pH 3.3, 60° C. 2 wk",0.995
same,pH,"[1]; target pH 3.3, 60° C. 2 wk",3.37
same,Impurities,"[1]; target pH 3.3, 60° C. 2 wk",0.69
same,Assay,"[1]; target pH 3.3, 60° C. 4 wk",1.027
same,pH,"[1]; target pH 3.3, 60° C. 4 wk",3.34
same,Impurities,"[1]; target pH 3.3, 60° C. 4 wk",1.26
same,Assay,"[1]; target pH 3.3, initial",1.019
same,pH,"[1]; target pH 3.3, initial",3.31
same,Assay,"[1]; target pH 3.6, 40° C. 1 wk",0.991
same,pH,"[1]; target pH 3.6, 40° C. 1 wk",3.64
same,Assay,"[1]; target pH 3.6, 40° C. 2 wk",0.985
same,pH,"[1]; target pH 3.6, 40° C. 2 wk",3.70
same,Assay,"[1]; target pH 3.6, 40° C. 4 wk",0.991
same,pH,"[1]; target pH 3.6, 40° C. 4 wk",3.64
same,Impurities,"[1]; target pH 3.6, 40° C. 4 wk",0.17
same,Assay,"[1]; target pH 3.6, 60° C. 1 wk",0.979
same,pH,"[1]; target pH 3.6, 60° C. 1 wk",3.65
same,Impurities,"[1]; target pH 3.6, 60° C. 1 wk",0.36
same,pH,"[1]; target pH 3.6, 60° C. 2 wk",3.70
same,Impurities,"[1]; target pH 3.6, 60° C. 2 wk",0.62
same,pH,"[1]; target pH 3.6, 60° C. 4 wk",3.64
same,Impurities,"[1]; target pH 3.6, 60° C. 4 wk",0.99
same,Assay,"[1]; target pH 3.6, initial",0.996
same,pH,"[1]; target pH 3.6, initial",3.62
same,Impurities,"[1]; target pH 3.6, initial",0.12
same,reduction of total channel open probability,[2]; 10 μM,42%
same,inhibition of the native BK channel,[2]; 1 and 10 μM,concentration—dependent inhibition
same,"Inhibition (%), Average",[2]; (XXXV) 1 (mM as printed),22.3%
same,"NPo, Average",[2]; (XXXV) 1 (mM as printed),0.014
same,"Inhibition (%), Average",[2]; (XXXV) 10 (mM as printed),41.4%
same,"NPo, Average",[2]; (XXXV) 10 (mM as printed),0.020
